Measurements published in PubChem BioAssay (NCI).
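Method: 48-hour compound exposure of cells in 96-well plates, five concentrations, linear interpolation of endpoints. Here, GI50 denotes the concentration required for 50% inhibition of growth. TGI marks complete inhibition of growth.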

Columns and labels:
Assay in all cases: NCI anticancer screen, dose series, 48 h
[1] = tested on: OVCAR-3 ovarian
[2] = tested on: SF-295 CNS
[3] = tested on: MCF7 breast
[4] = tested on: OVCAR-5 ovarian
[5] = tested on: 786-0 renal
[6] = tested on: M14 melanoma
[7] = tested on: SNB-19 CNS
[8] = tested on: T-47D breast
[9] = tested on: SK-MEL-5 melanoma
[10] = tested on: BT-549 breast
[11] = tested on: LOX IMVI melanoma
[12] = tested on: U251 CNS
[13] = tested on: MOLT-4 leukemia
[14] = tested on: NCI-H226 lung
[15] = tested on: HOP-62 NSCLC
[16] = tested on: RXF 393 renal
[17] = tested on: NCI-H23 lung
[18] = tested on: HS 578T breast
[19] = tested on: SF-268 CNS
[20] = tested on: SK-MEL-2 melanoma
[21] = tested on: NCI-H522 lung
[22] = tested on: ACHN renal
[23] = tested on: CAKI-1 renal
[24] = tested on: UACC-257 melanoma
[25] = tested on: KM12 colon
[26] = tested on: MDA-MB-435
[27] = tested on: OVCAR-8 ovarian
[28] = tested on: HT29 colon
[29] = tested on: MALME-3M melanoma
[30] = tested on: EKVX NSCLC
[31] = tested on: A549 NSCLC
[32] = tested on: UO-31 renal
[33] = tested on: NCI-H460 lung
[34] = tested on: NCI/ADR-RES ovarian
[35] = tested on: SF-539 CNS
[36] = tested on: SW-620 colon
[37] = tested on: PC-3 prostate
[38] = tested on: SK-OV-3 ovarian
[39] = tested on: HCT-116 colon
[40] = tested on: CCRF-CEM leukemia
[41] = tested on: UACC-62 melanoma
[42] = tested on: HCC-2998 colon
[43] = tested on: OVCAR-4 ovarian
[44] = tested on: RPMI-8226 leukemia
[45] = tested on: HOP-92 NSCLC
[46] = tested on: IGROV1 ovarian
[47] = tested on: SNB-75 CNS
[48] = tested on: HCT-15 colon
[49] = tested on: K-562 leukemia
[50] = tested on: HL-60(TB) leukemia
[51] = tested on: COLO 205 colon
[52] = tested on: DU-145 prostate
[53] = tested on: A498 renal
[54] = tested on: SK-MEL-28 melanoma
[55] = tested on: SR leukemia
[56] = tested on: TK-10 renal
[57] = tested on: SN12C renal
[58] = tested on: MDA-MB-231 breast

SMILES: COC(=O)C1=CN(CC2=CC(=O)C(C)=CC2=O)C=C(C(=O)OC)C1c1cc(OC)ccc1OC
- GI50 [1]: 12.5 µM
- TGI [1]: 29.2 µM
- GI50 [2]: 18.5 µM
- TGI [2]: 38 µM
- GI50 [3]: 22.7 µM
- TGI [3]: > 92.2 µM
- GI50 [4]: 13.9 µM
- TGI [4]: 28 µM
- GI50 [5]: 2.28 µM
- TGI [5]: 5.54 µM
- GI50 [6]: 12.1 µM
- TGI [6]: 26.5 µM
- GI50 [7]: 14.1 µM
- TGI [7]: 48.1 µM
- GI50 [8]: 3.03 µM
- TGI [8]: > 100 µM
- GI50 [9]: 14.8 µM
- TGI [9]: 29.1 µM
- GI50 [10]: 17.1 µM
- TGI [10]: 41.7 µM
- GI50 [11]: 13.7 µM
- TGI [11]: 26.6 µM
- GI50 [12]: 6.87 µM
- TGI [12]: 20.2 µM
- GI50 [13]: 2.21 µM
- GI50 [14]: 20.1 µM
- TGI [14]: 54.3 µM
- GI50 [15]: 19.9 µM
- TGI [15]: 38 µM
- GI50 [16]: 3 µM
- TGI [16]: 11.6 µM
- GI50 [17]: 13.4 µM
- TGI [17]: 28.6 µM
- GI50 [18]: 4.54 µM
- TGI [18]: 27.3 µM
- GI50 [19]: 13.8 µM
- TGI [19]: 31.3 µM
- GI50 [20]: 24 µM
- TGI [20]: > 73 µM
- GI50 [21]: 18.9 µM
- TGI [21]: > 56.2 µM
- GI50 [22]: 1.85 µM
- TGI [22]: 3.87 µM
- GI50 [23]: 6.38 µM
- TGI [23]: 13.5 µM
- GI50 [24]: 14.1 µM
- TGI [24]: 27.4 µM
- GI50 [25]: 16.1 µM
- TGI [25]: 31.7 µM
- GI50 [26]: 16.7 µM
- TGI [26]: 31.2 µM
- GI50 [27]: 12.9 µM
- TGI [27]: 38.4 µM
- GI50 [28]: 4.71 µM
- TGI [28]: > 100 µM
- GI50 [29]: 20 µM
- TGI [29]: 36 µM
- GI50 [30]: 16 µM
- TGI [30]: 31.8 µM
- GI50 [31]: 13.5 µM
- TGI [31]: 31.2 µM
- GI50 [32]: 4.94 µM
- TGI [32]: 9.44 µM
- GI50 [33]: 20.4 µM
- TGI [33]: > 95.8 µM
- GI50 [34]: 15.7 µM
- TGI [34]: 39.2 µM
- GI50 [35]: 16.6 µM
- TGI [35]: 31.9 µM
- GI50 [36]: 3.38 µM
- TGI [36]: 11.6 µM
- GI50 [37]: 9.42 µM
- TGI [37]: 24.7 µM
- GI50 [38]: 23 µM
- TGI [38]: > 54.8 µM
- GI50 [39]: 1.87 µM
- TGI [39]: 3.28 µM
- GI50 [40]: 1.73 µM
- TGI [40]: 3.61 µM
- GI50 [41]: 13.3 µM
- TGI [41]: 26.4 µM
- GI50 [42]: 5.79 µM
- TGI [42]: 13.4 µM
- GI50 [43]: 12.5 µM
- TGI [43]: 30.9 µM
- GI50 [44]: 1.9 µM
- TGI [44]: 4.83 µM
- GI50 [45]: 0.658 µM
- TGI [45]: 11.9 µM
- GI50 [46]: 16.6 µM
- TGI [46]: 43.1 µM
- GI50 [47]: 25.4 µM
- TGI [47]: 74.1 µM
- GI50 [48]: 13.5 µM
- TGI [48]: 30 µM
- GI50 [49]: 3.85 µM
- GI50 [50]: 6.8 µM
- TGI [50]: 99.4 µM
- GI50 [51]: 8.56 µM
- TGI [51]: 30.6 µM
- GI50 [52]: 13.8 µM
- TGI [52]: 26.8 µM
- GI50 [53]: 15 µM
- TGI [53]: 29.7 µM
- GI50 [54]: 15.4 µM
- TGI [54]: 40.5 µM
- GI50 [55]: 2.59 µM
- TGI [55]: > 22.3 µM
- GI50 [56]: 10.7 µM
- TGI [56]: 36.8 µM
- GI50 [57]: 16 µM
- TGI [57]: 33.2 µM
- GI50 [58]: 15.7 µM
- TGI [58]: 30.2 µM
